Laboratory results from patent publication US11660319B2, “Compositions comprising bacterial strains” (priority 2017, dated 2023).

Legend:
[1] = system: SH-SY5Y neuroblastoma cells; assay: Neuroprotection / cell viability of neuroblastoma cells treated with MPP (CCK-8); assay type: cell-based, human
Method: Once grown the SH-SY5Y neuroblastoma cells were plated on 96-well plate at 11,000 cells/well and incubated for 2 days. The cells were then transferred to differentiation medium (which contains FBS at 1%) and 10 uM retinoic acid (Sigma Aldrich, cat. n. R2625-100MG). Differentiation medium was replaced every other day and cells were harvested at 7 day of differentiation. Cells were pre-treated with or without MPP (Sigma Aldrich, cat. n. D048-1G) for 8 hours. Subsequently, cells were treated with 10% bacterial supernatant and incubated overnight. Cell viability was measured by using CCK-8 reagent (Sigma Aldrich, Cell Counting Kit-8, cat. n. 96992-3000TESTS-F) and read at 450 nm wavelength.

[2] = ABTS antioxidant capacity assay of bacterial cell lysate; conditions: compared to Trolox
Method: Bacterial cells (10^6 or greater) were collected and centrifuged. They were resuspended in assay buffer (using three times the pellet volume). The suspension was sonicated on ice for 5 minutes and then spun down at 12,000×g for 10 minutes. The supernatant was removed and measured using the ABTS assay kit produced by Sigma Aldrich (code CS0790), in accordance with manufacturer's instructions.

[3] = Lipid peroxidation, thiobarbituric reactive substances assay (TBARs); conditions: positive control butylated hydroxytoluene (1% w/v)
Method: Bacterial cells (10^6 or greater) were collected and centrifuged, a wash step was performed with isotonic saline before the pellet was re-suspended in potassium chloride assay buffer. The suspension was sonicated on ice for 10 minutes and then spun down at 10,000×g for 10 minutes. The supernatant was removed and the level of lipid peroxidation evaluated using the thiobarbituric reactive substances assay.

[4] = system: differentiated SHSY-5Y neuroblastoma cells; assay: ROS generated by TBHP (DCFDA fluorescence); assay type: cell-based, human; conditions: 100 uM TBHP, 10% bacteria supernatant, 2 h
Method: SHSY-5Y cells were plated in black flat bottom 96 well plate at density of 5000 cells/well and placed in the CO2 incubator. After 24 h, media were replaced with differentiation medium (growth medium containing 1% FBS) and 10 μM retinoic acid. Differentiation medium was replaced every other day. On Day 10 the differentiation medium was removed and cells were washed with pre-warmed PBS and stained with 10 uM DCFDA molecular probe for 20 mins in growth medium containing 1% FBS. Then cells were washed with pre-warmed PBS again and treated with 100 uM TBHP in the presence or absence of 10% bacteria supernatant for 2 h. Fluorescence intensity was measured using TECAN plate reader at Ex/Em 485/530 nm.

[5] = system: HT29-mtx epithelial, mucin-producing cell monolayers; assay: IL-8 secretion of HT29-mtx monolayers; assay type: cell-based; conditions: bacterial supernatants 24 h; compared to untreated and YCFA-treated cells
Text: HT29-mtx epithelial, mucin-producing cell monolayers were used as an in vitro model to evaluate gut barrier disruption and immune stimulation following treatment with MRx0005 and MRx0029.

BALBc mice = assay: Gene expression in hippocampus, amygdala and prefrontal cortex (qPCR); assay type: in vivo, mouse; conditions: amygdala
Method: Animals were allowed to habituate to their holding room for one week after arrival into the animal unit. They receive oral gavage (200 μL dose) of live biotherapeutics at a dose of 1×10^9 CFU for 6 consecutive days between 15:00 and 17:00. On day 7, the animals are decapitated, and tissues are harvested for experimentation.
Total RNA was extracted using the mirVana™ miRNA Isolation kit (Ambion/Llife technologies, Paisley, UK) and DNase treated (Turbo DNA-free, Ambion/life technologies) according to the manufacturers recommendations. RNA was quantified using NanoDrop™ spectrophotometer (Thermo Fisher Scientific Inc., Wilmington, Del., USA) according to the manufacturer's instructions. RNA quality was assessed using the Agilent Bioanalyzer (Agilent, Stockport, UK) according to the manufacturer's procedure and an RNA integrity number (RIN) was calculated. RNA with RIN value >7 was used for subsequent experiments. RNA was reverse transcribed to cDNA using the Applied Biosystems High Capacity cDNA kit (Applied Biosystems, Warrington, UK) according to manufacturer's instructions. Briefly, Multiscribe Reverse Transcriptase (50 U/μL) (1)(2)(1)(10) was added as part of RT master mix, incubated for 25° C. for 10 min, 37° C. for 2 h, 85° C. for 5 min and stored at 4° C. Quantitative PCR was carried out using probes (6 carboxy fluorescein-FAM) designed by Applied Biosystems to mouse specific targeted genes, while using β-actin as an endogenous control. Amplification reactions contained 1 μl cDNA, 5 μl of the 2× PCR Master mix (Roche), 900 nM of each primer and were brought to a total of 10 μl by the addition of RNase-free water. All reactions were performed in triplicate using 96-well plates on the LightCycler®480 System. Thermal cycling conditions were as recommended by the manufacturer (Roche) for 55 cycles. To check for amplicon contamination, each run contained no template controls in triplicate for each probe used. Cycle threshold (Ct) values were recorded. Data was normalized using β-actin and transformed using the 2-ΔΔCT method and presented as a fold change vs. control group.
Expression of genes for neurotransmitter receptors [serotonin receptor 1a(5-HTR1a), dopamine D1 receptor, GABA receptor subunit B1, GABAA receptor, NMDA2A (Grin2A) and NMDA2B (Grin2b) receptor], inflammatory markers [IL-1β, IL6, CD11b, TNFα and TLR4], and endocrine markers [corticosterone releasing factor (CRF), corticosterone releasing factor receptors 1 and 2 (CRFR1, CRFR2), brain-derived neurotrophin factor (BDNF), vasopressin receptor, oxytocin receptor, glucocorticoid receptor and mineralocorticoid receptor] were analysed in brain tissue from the hippocampus, amygdala and prefrontal cortex.

Megasphaera massiliensis [MRx0029]
proliferation of neurons ([1]; 10% bacterial supernatant, without MPP): increase | cell viability of cells treated with MPP ([1]; MPP pre-treatment 8 hours, then 10% bacterial supernatant overnight, compared to MPP alone): rescued viability more than the positive control | protection from MPP+ (cell viability) ([1]; RA-differentiated SHSY-5Y cells treated with MPP+): complete protection | mitochondria metabolic activity ([1]; RA-differentiated SHSY-5Y cells, per se (no MPP+)): increase | antioxidant capacity [2]: approximately 2 mM | inhibition of lipid peroxidation [3]: approximately 20% | ROS production [4]: inhibit | secretion of IL-8 [5]: even lower secretion | expression of CD11b (BALBc mice): increase | expression of GABBR1 (BALBc mice): increased | expression of GABRA2 (BALBc mice): significantly increased | expression of TLR4 (BALBc mice): significantly increased | glucocorticoid receptor expression (BALBc mice): increase
